Measurements taken from patent publication US9983218B2, “Indole and indoline derivatives and methods of use thereof” (AbbVie Inc., priority 2008, dated 2018).
Read-outs that look alike come from different tables or passages of the source.

System: SK-N-SH human neuroblastoma cells
Test: Serum deprivation/JC-1 mitochondrial membrane potential (MMP) assay
Type: cell-based
Settings: Homo sapiens; for Emax: read-out: JC-1 max %
Procedure: SK-N-SH human neuroblastoma cells obtained from American Type Culture Collection (Rockville, Md.) were maintained in the log phase of growth in Minimal Essential Media (MEM), 10% heat inactivated fetal calf serum and 100 units/mL antibiotic-antimycotic (AA). Cells were cultured and maintained in a humidified incubator at 37° C. under 5% CO2 and 95% air. Cells were trypsinized (0.25%) and subcultured every 3 days and used from 15-18 passages. All cell culture supplies were obtained from Invitrogen (Carlsbad, Calif.).
SK-N-SH cells were plated 2-3 days in advance at a concentration of 50,000 cells/well onto collagen coated black-walled 96 well plates (Becton-Dickinson, Bedford, Mass.) in a total volume of 200 μL. On day of experimental treatment, the media containing serum was aspirated from each well and rinsed once with MEM/1% AA without serum. The cells then were incubated overnight in 100 μL of MEM/1% AA (no serum) with and without dimebolin or novel chemical entities overnight for ˜18 hours. The following day, JC-1 dye (5,5′,6,6′-tetrachloro-1,1′,3,3′-tetraethylbenzimidazolcarbocyanide) was diluted 1:10 into MEM media according to the JC-1 Mitochondrial Membrane Potential Assay Kit: (Cayman Chemical Company, Ann Arbor, Mich.) and then 10 μL of the JC-1 dye solution was added to each well. The plates were centrifuged for 5 minutes at 400×g at room temperature followed by 35 minute incubation at 37° C. The plates were washed twice with 200[…] μL of provided Assay Buffer followed an addition of 100 μL of Assay Buffer to each well. The plates were read with an excitation and emission of 560 nm and 595 nM for red fluorescence and with an excitation and emission of 485 nm and 535 nM for green fluorescence to determine the final JC-1 value taking the red to green fluorescence ratio. This assay is based on change in mitochondrial membrane potential (MMP) using this lipophilic cationic dye, JC-1, by monitoring the changes in the ratio of red to green fluorescence as the MMP depolarizes. This change in MMP reflects the health of the cell with healthy, viable cells have a high JC-1 ratio and high MMP whereas apoptotic, unhealthy cells have a low JC-1 ratio or low MMP.
For the ability of compounds to reverse the stress due to serum deprivation and increase the JC-1 ratio, the percent maximal intensity in JC-1 ratio was normalized to that induced by the peak value for 10 μM dimebolin and plotted against the compound concentration to calculate EC50 values and to control for plate-to-plate variability. Concentration-response data were analyzed using GraphPad Prism (San Diego, Calif.); the EC50 values were derived from a single curve fit to the mean data of n=2-3, in duplicates.
All compounds were dissolved in dimethyl sulfoxide at 10 mM stock solutions and tested at a concentration that the dimethyl sulfoxide levels never exceeded 1%.

[1] = SK-N-SH, percent maximal intensity in JC-1 ratio normalized to 10 μM dimebolin
[2] = SK-N-SH cells, serum deprivation ~18 hours, JC-1 ratio normalized to peak value for 10 μM dimebolin, single curve fit to mean data of n=2-3, read-out: EC50

Compound | Emax [1] | EC50 [2] | EC50 (SK-N-SH, 18 h) | Emax (SK-N-SH)
Cc1ccc2c(c1)c1c(n2CCc2ccc(Cl)cc2)C2CCN(CC2)C1 [Example 151, 6-[2-(4-chlorophenyl)ethyl]-9-methyl-3,4,5,6-tetrahydro-1H-2,5-ethanoazepino[4,3-b]indole] | 121% | 5.38 µM |  | 
CN1C2CCC1c1c(n(CCc3ccc(Cl)cc3)c3ccc(OC(F)(F)F)cc13)C2 (stereo not shown) [Example 97, 5-[2-(4-chlorophenyl)ethyl]-11-methyl-2-(trifluoromethoxy)-5,6,7,8,9,10-hexahydro-7,10-epiminocyclohepta[b]indole] |  |  | 5.13 µM | 164%
c1ccc2c(c1)c1c(n2-c2ccc3ncncc3c2)C2CCN(CC2)C1 [Example 269, 6-(quinazolin-6-yl)-3,4,5,6-tetrahydro-1H-2,5-ethanoazepino[4,3-b]indole] | 204% | 0.745 µM |  | 
Fc1ccc2c(c1)c1c(n2Cc2ccc(N3CCCC3)nc2)C2CCN(CC2)C1 [Example 244, 9-fluoro-6-{[6-(pyrrolidin-1-yl)pyridin-3-yl]methyl}-3,4,5,6-tetrahydro-1H-2,5-ethanoazepino[4,3-b]indole] | 226% | 5.65 µM |  | 
Clc1ccc2nc(Cn3c4c(c5ccccc53)CN3CCC4CC3)cn2n1 [Example 257, 6-[(6-chloroimidazo[1,2-b]pyridazin-2-yl)methyl]-3,4,5,6-tetrahydro-1H-2,5-ethanoazepino[4,3-b]indole] | 155% | 3.6 µM |  | 
Cc1ccc2cc(-n3c4c(c5ccccc53)CN3CCC4CC3)ccc2n1 [Example 232, 6-(2-methylquinolin-6-yl)-3,4,5,6-tetrahydro-1H-2,5-ethanoazepino[4,3-b]indole] | 220% | 0.81 µM |  | 
Fc1cncc(Cn2c3c(c4cc(F)ccc42)CN2CCC3CC2)c1 [Example 246, 9-fluoro-6-[(5-fluoropyridin-3-yl)methyl]-3,4,5,6-tetrahydro-1H-2,5-ethanoazepino[4,3-b]indole] | 148% | 8.76 µM |  | 
Cc1ccc2c(c1)c1c(n2CCc2ccc(C)nc2)C2CCCN(C1)C2 (stereo not shown) [Example 202, 10-methyl-7-[2-(6-methylpyridin-3-yl)ethyl]-1,3,4,5,6,7-hexahydro-2,6-methanoazocino[4,3-b]indole] | 239% | 3.07 µM |  | 
CN1CCN(c2ccc(-n3c4c(c5ccccc53)CN3CCC4CC3)cc2)CC1 [Example 237, 6-[4-(4-methylpiperazin-1-yl)phenyl]-3,4,5,6-tetrahydro-1H-2,5-ethanoazepino[4,3-b]indole] | 174% | 2.48 µM |  | 
CN1[C@H]2CC[C@@H]1c1c(n(-c3ccc4ncccc4c3)c3ccccc13)C2 [Example 281, (7S,10R)-11-methyl-5-(quinolin-6-yl)-5,6,7,8,9,10-hexahydro-7,10-epiminocyclohepta[b]indole] | 228% | 1.74 µM |  | 
Cc1ccc2c(c1)c1c(n2-c2ccc3ccccc3n2)C2CCN(CC2)C1 [Example 222, 9-methyl-6-quinolin-2-yl-3,4,5,6-tetrahydro-1H-2,5-ethanoazepino[4,3-b]indole] | 215% | 4.43 µM |  | 
Cc1ccc(CCn2c3c(c4cc(S(C)(=O)=O)ccc42)CN2CCC3CC2)cn1 [Example 182, 6-[2-(6-methylpyridin-3-yl)ethyl]-9-(methylsulfonyl)-3,4,5,6-tetrahydro-1H-2,5-ethanoazepino[4,3-b]indole] | 60% | 9.28 µM |  | 
Fc1ccc2c(c1)c1c(n2Cc2coc(-c3ccccc3)n2)C2CCN(CC2)C1 [Example 173, 9-fluoro-6-[(2-phenyl-1,3-oxazol-4-yl)methyl]-3,4,5,6-tetrahydro-1H-2,5-ethanoazepino[4,3-b]indole] | 120% | 6.15 µM |  | 
Cc1ccc(CCn2c3c(c4cc(C5CC5)ccc42)C2CCC(C3)N2C)cn1 (stereo not shown) [Example 103, 2-cyclopropyl-11-methyl-5-[2-(6-methylpyridin-3-yl)ethyl]-5,6,7,8,9,10-hexahydro-7,10-epiminocyclohepta[b]indole] | 180% | 4.17 µM |  | 
Cc1ccc2c(c1)c1c(n2CCc2ccc(C)nc2)CC2CCC1N2C(=O)c1ccc(Cl)cc1 (stereo not shown) [Example 17, 11-(4-chlorobenzoyl)-2-methyl-5-[2-(6-methylpyridin-3-yl)ethyl]-5,6,7,8,9,10-hexahydro-7,10-epiminocyclohepta[b]indole] | 345% | 3.53 µM |  | 
Cc1ccc(CCn2c3c(c4cc(F)ccc42)C2CCC(C3)N2C)cc1 (stereo not shown) [Example 84, 2-fluoro-11-methyl-5-[2-(4-methylphenyl)ethyl]-5,6,7,8,9,10-hexahydro-7,10-epiminocyclohepta[b]indole] | 173% | 6.76 µM |  | 
Fc1ccc2c(c1)c1c(n2Cc2cnc(-c3ccccc3)nc2)C2CCN(CC2)C1 [Example 249, 9-fluoro-6-[(2-phenylpyrimidin-5-yl)methyl]-3,4,5,6-tetrahydro-1H-2,5-ethanoazepino[4,3-b]indole] | 133% | 5.27 µM |  | 
CC1CCC(CCn2c3c(c4cc(OC(F)(F)F)ccc42)CN2CCC3CC2)CN1 (stereo not shown) [Example 179, 6-[2-(6-methylpiperidin-3-yl)ethyl]-9-(trifluoromethoxy)-3,4,5,6-tetrahydro-1H-2,5-ethanoazepino[4,3-b]indole] | 116% | 5.69 µM |  | 
Cc1ccc2c(c1)c1c(n2CCc2ccccc2C)C2CCCN(C1)C2 (stereo not shown) [Example 203, 10-methyl-7-[2-(2-methylphenyl)ethyl]-1,3,4,5,6,7-hexahydro-2,6-methanoazocino[4,3-b]indole] | 159% | 4.53 µM |  | 
Cc1ccc2c(c1)c1c(n2/C=C/c2ccc(C)nc2)CC2CCCC1N2C (stereo not shown) [Example 122, 2,12-dimethyl-5-[(E)-2-(6-methylpyridin-3-yl)vinyl]-6,7,8,9,10,11-hexahydro-5H-7,11-epiminocycloocta[b]indole] | 141% | 5.29 µM |  | 
Fc1ccc2c(c1)c1c(n2Cc2ccc(-n3cccn3)nc2)C2CCN(CC2)C1 [Example 247, 9-fluoro-6-{[6-(1H-pyrazol-1-yl)pyridin-3-yl]methyl}-3,4,5,6-tetrahydro-1H-2,5-ethanoazepino[4,3-b]indole] | 192% | 4.65 µM |  | 
Cc1ccc2c(c1)c1c(n2CCc2ccc(C)nc2)C[C@H]2CCC[C@@H]1N2 (single isomer, unassigned) [Example 120] | 197% | 3.4 µM |  | 
COc1ccc2c(c1)c1c(n2CCc2ccc(Cl)cc2)C[C@@H]2CC[C@H]1N2C (single isomer, unassigned) [Example 93] | 186% | 4.81 µM |  | 
Cc1ccc(CCn2c3c(c4cc(-c5ccc(Cl)cc5)ccc42)C2CCC(C3)N2C)cn1 (stereo not shown) [Example 106, 2-(4-chlorophenyl)-11-methyl-5-[2-(6-methylpyridin-3-yl)ethyl]-5,6,7,8,9,10-hexahydro-7,10-epiminocyclohepta[b]indole] | 238% | 5.73 µM |  | 
COc1cccc2c3c(n(CCc4ccc(Cl)cc4)c12)CC1CCC3N1C (stereo not shown) [Example 96, 5-[2-(4-chlorophenyl)ethyl]-4-methoxy-11-methyl-5,6,7,8,9,10-hexahydro-7,10-epiminocyclohepta[b]indole] | 169% | 4.41 µM |  | 
Cc1ccc2c(c1)c1c(n2CCc2ccc(C)nc2)C[C@@H]2CCC[C@H]1N2 (single isomer, unassigned) [Example 121] | 129% | 3.63 µM |  | 
